Assay results published in patent publication US10730890B2, “Phthalocyanine derivative consisting of a mixture of 4 isomers” (MOLTENI THERAPEUTICS S.R.L., priority 2009, dated 2020).

Assays:
[1] = pharmacological and toxicological activity of product (I) compared with compounds (V) and (VI); settings: new isomers distribution (low isomer B content) with respect to compounds (V) and (VI)
[2] = solubilisation of intermediate (II) in DMF and THF/MeOH 1/1, HPLC analysis of the solutions; assay type: physicochemical; settings: 2 mg/ml, isomer B precipitates
Procedure: Experimental Proof of the Difficulty of Preparing Solutions of (II), Due to the Low Solubility of the Isomer B.
Two samples of the same batch of intermediate (II) are solubilised (2 mg/ml) in, DMF and THF/MeOH 1/1. The solutions are appropriately diluted and analysed in HPLC. […] This behaviour can lead to the preparation of samples having variable composition and, ultimately, to the production of not reliable analytical data including the ones concerning the other isomers

Substance | difference in terms of pharmacological and toxicological activity [1] | solubility of the isomer B in comparison to the other isomers [2]
[1.8(11),15(18),22(25)-tetrakis-(3-N,N,N-trimethylammonium phenoxy)] Zinc Phthalocyaninate Tetrachloride “With Low Isomer B Content” [(I)] | does not imply any difference | –
[1,8(11),15(18),22(25)-tetrakis-(3-N,N-dimethylamino phenoxy)] Zinc Phthalocyaninate [isomer B] | – | lower solubility
